Reference: US10064901B2, “Compositions and methods” (priority 2013, dated 2018)
Values after ≈ are worked out from the molar mass of the structure shown. Where two headings read alike, the source gives them in different places.

Assays:
[1] = system: P. pennerii isolates; assay: organism not typed; assay type: cell-based, Proteus pennerii
[2] = system: M. morganii isolates; assay: microbe, parasite or virus in culture; assay type: cell-based; conditions: Morganella morganii
[3] = assay type: in vivo, human
[4] = system: ethanol treated spores; assay type: cell-based; conditions: lysozyme addition to the plates (2 ug/ml); Sweet B or M2GSC media (FIG. 14)
[5] = 10 patients with recurrent C. difficile treated with ethanol treated spore preparations

Compound	% of Patients OTU Engrafts [3, 5] [%]	other results
C[C@@H](O)[C@H]1C(=O)N2C(C(=O)O)=C(SCCN=CN)C[C@H]12 [imipenem]		MIC [1]: 4 to 8 µg/mL (≈ 13.4 to 26.7 µM); MIC [2]: 2 to 4 µg/mL (≈ 6.68 to 13.4 µM)
Bacteroides_fragilis	30	
Clostridium_bartlettii	70	
Clostridium_butyricum		% of Patients OTU Engrafts ([3]; human, in vivo): 20%
Clostridium_clostridioforme	60	
Clostridium_disporicum	30	
Clostridium_mayombei	50	
Clostridium_symbiosum	50	
lysozyme		effect on germination [4]: small effect
